Test results: PubChem BioAssay AID248 (DTP/NCI, 2004)
Where “and” joins values, the source holds several entries; their conditions need not be identical. Equal values may be shown once. Toxic doses and inconclusive results are not listed. Cut-off read from the data, not from the text of the source: active = T/C of 150% or more; inactive = T/C below 125%.

Test system: L1210 leukemia ip in BDF1 mice, survival T/C
Assay: NCI In Vivo Anticancer Drug Screen. Data for tumor model L1210 Leukemia (intraperitoneal) in B6D2F1 (BDF1) mice
Conditions: endpoint: mean survival time, higher = longer survival
Outline: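 Tumor cells were implanted, animals were treated, and survival was followed. The result divides the treated measurement by the vehicle-control measurement.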

[1] = dose: 100.0 mg/kg/injection, schedule: Q01DX009 (ip), vehicle: Klucel (hydroxypropylcellulose) (HPC)
[2] = dose: 200.0 mg/kg/injection, schedule: Q01DX009 (ip), vehicle: Klucel (hydroxypropylcellulose) (HPC)
[3] = dose: 400.0 mg/kg/injection, schedule: Q01DX009 (ip), vehicle: Klucel (hydroxypropylcellulose) (HPC)
[4] = dose: 50.0 mg/kg/injection, schedule: Q01DX009 (ip), vehicle: saline with Tween-80
[5] = dose: 100.0 mg/kg/injection, schedule: Q04DX003 (ip), vehicle: saline with Tween-80
[6] = dose: 100.0 mg/kg/injection, schedule: Q01DX001 (ip), vehicle: saline
[7] = dose: 200.0 mg/kg/injection, schedule: Q01DX001 (ip), vehicle: saline
[8] = dose: 400.0 mg/kg/injection, schedule: Q01DX001 (ip), vehicle: saline
[9] = dose: 25.0 mg/kg/injection, schedule: Q01DX001 (ip), vehicle: saline with Tween-80
[10] = dose: 100.0 mg/kg/injection, schedule: Q04DX002 (ip), vehicle: saline
[11] = dose: 100.0 mg/kg/injection, schedule: Q01DX001 (ip), vehicle: saline with Tween-80
[12] = dose: 100.0 mg/kg/injection, schedule: Q04DX003 (ip), vehicle: Klucel (hydroxypropylcellulose) (HPC)
[13] = dose: 200.0 mg/kg/injection, schedule: Q04DX003 (ip), vehicle: Klucel (hydroxypropylcellulose) (HPC)
[14] = dose: 400.0 mg/kg/injection, schedule: Q04DX003 (ip), vehicle: Klucel (hydroxypropylcellulose) (HPC)
[15] = dose: 25.0 mg/kg/injection, schedule: Q04DX003 (ip), vehicle: saline with Tween-80
[16] = dose: 50.0 mg/kg/injection, schedule: Q04DX003 (ip), vehicle: saline with Tween-80

Measured: T/C

CCOC(=O)c1ccc(NC(=O)Oc2cccc(NC(C)=O)c2)cc1
inactive: [1] 92 % of control | [2] 95 % of control | [3] 92 % of control

Cc1nc(N)nc(N)c1CCCCc1ccc(N)cc1
inactive: dose: 100.0 mg/kg/injection, schedule: Q01DX001 (ip), vehicle: Klucel (hydroxypropylcellulose) (HPC) 92 % of control | dose: 200.0 mg/kg/injection, schedule: Q01DX001 (ip), vehicle: Klucel (hydroxypropylcellulose) (HPC) 101 % of control

FC(F)C(F)(F)C(F)(F)C(F)(F)C(F)(F)C(F)(F)COc1nc(OCC(F)(F)C(F)(F)C(F)(F)C(F)(F)C(F)(F)C(F)F)nc(OCC(F)(F)C(F)(F)C(F)(F)C(F)(F)C(F)(F)C(F)F)n1
inactive: dose: 25.6 mg/kg/injection, schedule: Q04DX002 (ip), vehicle: saline with Tween-80 97 % of control | [4] 89 % of control | dose: 64.0 mg/kg/injection, schedule: Q04DX002 (ip), vehicle: saline with Tween-80 91 % of control | dose: 100.0 mg/kg/injection, schedule: Q01DX009 (ip), vehicle: saline with Tween-80 92 % of control | [5] 91 % of control | dose: 160.0 mg/kg/injection, schedule: Q04DX002 (ip), vehicle: saline with Tween-80 97 % of control | dose: 200.0 mg/kg/injection, schedule: Q01DX009 (ip), vehicle: saline with Tween-80 90 % of control | dose: 200.0 mg/kg/injection, schedule: Q04DX003 (ip), vehicle: saline with Tween-80 86 % of control | dose: 400.0 mg/kg/injection, schedule: Q04DX002 (ip), vehicle: saline with Tween-80 91 % of control | dose: 400.0 mg/kg/injection, schedule: Q04DX003 (ip), vehicle: saline with Tween-80 87 % of control

CC(=O)Oc1ccc(OC(C)=O)c2c1C1C=CC2C1
inactive: [6] 103 % of control | [7] 103 % of control | [8] 101 % of control

Cc1cccc(-c2nc3ncnc(N)c3[nH]2)c1
inactive: dose: 6.25 mg/kg/injection, schedule: Q01DX001 (ip), vehicle: saline with Tween-80 95 % of control | dose: 12.5 mg/kg/injection, schedule: Q01DX001 (ip), vehicle: saline with Tween-80 97 % of control | [9] 101 % of control

O=S(=O)(c1ccccc1)N1CN(S(=O)(=O)c2ccccc2)CN(S(=O)(=O)c2ccccc2)C1
inactive: dose: 100.0 mg/kg/injection, schedule: Q04DX002 (ip), vehicle: Klucel (hydroxypropylcellulose) (HPC) 93 % of control | dose: 200.0 mg/kg/injection, schedule: Q04DX002 (ip), vehicle: Klucel (hydroxypropylcellulose) (HPC) 100 % of control | dose: 400.0 mg/kg/injection, schedule: Q04DX002 (ip), vehicle: Klucel (hydroxypropylcellulose) (HPC) 96 % of control

CCC(C)(OC(=O)c1ccc([N+](=O)[O-])cc1)C(C)C (stereo not drawn)
inactive: dose: 75.0 mg/kg/injection, schedule: Q04DX002 (ip), vehicle: saline with Tween-80 95 % of control | dose: 150.0 mg/kg/injection, schedule: Q04DX002 (ip), vehicle: saline with Tween-80 91 % of control

C(=C\c1ccccc1)/CN1CCOCC1
inactive: dose: 25.0 mg/kg/injection, schedule: Q04DX002 (ip), vehicle: saline 94 % of control | dose: 50.0 mg/kg/injection, schedule: Q04DX002 (ip), vehicle: saline 94 % of control | [10] 105 % of control

Cc1nc(N)[nH]c(=O)c1CCCNC(=O)c1ccc(C(=O)O)cc1
inactive: [9] 90 % of control | dose: 50.0 mg/kg/injection, schedule: Q01DX001 (ip), vehicle: saline with Tween-80 97 % of control | [11] 93 % of control

CCOC(Nc1ccc([N+](=O)[O-])cc1)C(=O)c1ccccc1 (stereo not drawn)
inactive: [6] 93 % of control | [7] 97 % of control | [8] 100 % of control

CC(=O)OC1CCC2(C)C(CCC3C2CC(=O)C2(C)C3CC(Sc3ccc(N(CCCl)CCCl)cc3)C2C(C)=O)C1 (stereo not drawn)
inactive: dose: 100.0 mg/kg/injection, schedule: Q01DX001 (sc), vehicle: steriod suspending solution 108 % of control | dose: 200.0 mg/kg/injection, schedule: Q01DX001 (sc), vehicle: steriod suspending solution 103 % of control | dose: 400.0 mg/kg/injection, schedule: Q01DX001 (sc), vehicle: steriod suspending solution 105 % of control

C=CC[P+](c1ccccc1)(c1ccccc1)c1ccccc1
inactive: dose: 1.56 mg/kg/injection, schedule: Q01DX009 (ip), vehicle: Klucel (hydroxypropylcellulose) (HPC) 103 % of control | dose: 3.12 mg/kg/injection, schedule: Q01DX009 (ip), vehicle: Klucel (hydroxypropylcellulose) (HPC) 101 % of control | dose: 5.0 mg/kg/injection, schedule: Q01DX001 (ip), vehicle: saline 104 % of control | dose: 6.25 mg/kg/injection, schedule: Q01DX009 (ip), vehicle: Klucel (hydroxypropylcellulose) (HPC) 94 % of control | dose: 9.5 mg/kg/injection, schedule: Q01DX001 (ip), vehicle: other 107 % of control | dose: 10.0 mg/kg/injection, schedule: Q01DX001 (ip), vehicle: saline 98 % of control | dose: 12.5 mg/kg/injection, schedule: Q01DX009 (ip), vehicle: Klucel (hydroxypropylcellulose) (HPC) 103 % of control | dose: 19.0 mg/kg/injection, schedule: Q01DX001 (ip), vehicle: other 100 % of control | dose: 20.0 mg/kg/injection, schedule: Q01DX001 (ip), vehicle: saline 102 % of control | dose: 38.0 mg/kg/injection, schedule: Q01DX001 (ip), vehicle: other 102 % of control

Nn1c(C(F)(F)F)n[nH]c1=S
inactive: dose: 100.0 mg/kg/injection, schedule: Q04DX003 (ip), vehicle: alcohol 103 % of control | dose: 200.0 mg/kg/injection, schedule: Q04DX003 (ip), vehicle: alcohol 101 % of control | dose: 400.0 mg/kg/injection, schedule: Q04DX003 (ip), vehicle: alcohol 95 % of control

CC(=O)CCCC1C(=O)N(c2ccccc2)N(c2ccccc2)C1=O
inactive: [12] 102 % of control | [13] 101 % of control | [14] 96 % of control

Cc1ccc(C(=NN=C(N)N)c2ccc(C)cc2)cc1
inactive: dose: 3.75 mg/kg/injection, schedule: Q01DX Z (ip), vehicle: saline 101 % of control | dose: 7.5 mg/kg/injection, schedule: Q01DX Z (ip), vehicle: saline 95 % of control | dose: 7.5 mg/kg/injection, schedule: Q01DX Z (oral), vehicle: saline 98 % of control | dose: 15.0 mg/kg/injection, schedule: Q01DX Z (ip), vehicle: saline 93 % of control and 94 % of control | dose: 15.0 mg/kg/injection, schedule: Q01DX Z (oral), vehicle: saline 96 % of control | dose: 30.0 mg/kg/injection, schedule: Q01DX Z (ip), vehicle: saline 104 % of control | dose: 30.0 mg/kg/injection, schedule: Q01DX Z (oral), vehicle: saline 101 % of control | dose: 60.0 mg/kg/injection, schedule: Q01DX Z (oral), vehicle: saline 101 % of control

CC1CC(C)(C)N=C(C(Cc2ccccc2)CC(O)c2ccccc2)O1 (stereo not drawn)
inactive: [15] 94 % of control | [16] 92 % of control | [5] 86 % of control and 90 % of control

CC(=O)c1sc2sc(C(C)=O)c(NC(=S)Nc3ccccc3Cl)c2c1NC(=S)Nc1ccccc1Cl
inactive: [1] 97 % of control | [2] 96 % of control | [3] 94 % of control

O=C(CN(CCO)CCO)c1ccc([N+](=O)[O-])cc1
inactive: dose: 75.0 mg/kg/injection, schedule: Q01DX001 (ip), vehicle: saline 101 % of control

CNCCCNCC(Cc1ccccc1)c1ccccc1 (stereo not drawn)
inactive: [10] 86 % of control

CN=C(N)c1ccc(C(=O)OCCOC)cc1
inactive: [6] 96 % of control | [7] 107 % of control | [8] 105 % of control

CS/C(N)=N/N=C(\N)SC
inactive: dose: 25.0 mg/kg/injection, schedule: Q01DX009 (ip), vehicle: saline with Tween-80 101 % of control | [15] 91 % of control | [4] 95 % of control | [16] 90 % of control | [11] 102 % of control | [5] 111 % of control

O=C1NC(c2cccs2)N2C(=O)NC(c3cccs3)N12 (stereo not drawn)
inactive: dose: 100.0 mg/kg/injection, schedule: Q04DX002 (ip), vehicle: gum acacia 105 % of control | dose: 200.0 mg/kg/injection, schedule: Q04DX002 (ip), vehicle: gum acacia 109 % of control | dose: 400.0 mg/kg/injection, schedule: Q04DX002 (ip), vehicle: gum acacia 112 % of control

CC(=O)COc1ccccc1
inactive: [1] 108 % of control | [12] 100 % of control | [2] 110 % of control | [13] 97 % of control | [3] 108 % of control | [14] 95 % of control
